According to PubChem BioAssay (NCI):
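Exposure lasted 48 hours, with cells grown in 96-well plates and compounds tested at five concentrations. GI50: concentration for 50% inhibition of growth. The concentration for full growth arrest is given as TGI.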

Experiments:
Test in all cases: growth of human tumour cells (NCI), 48 h; in the data active means GI50 below about 0.43 µM; inactive means the rest
[1] = tested on: 786-0 renal
[2] = tested on: A498 renal
[3] = tested on: A549 NSCLC
[4] = tested on: ACHN renal
[5] = tested on: CAKI-1 renal
[6] = tested on: CCRF-CEM leukemia
[7] = tested on: COLO 205 colon
[8] = tested on: DLD-1 colon
[9] = tested on: DMS 114 small cell lung
[10] = tested on: EKVX NSCLC
[11] = tested on: HCC-2998 colon
[12] = tested on: HCT-15 colon
[13] = tested on: HL-60(TB) leukemia
[14] = tested on: HOP-18 NSCLC
[15] = tested on: HOP-62 NSCLC
[16] = tested on: HOP-92 NSCLC
[17] = tested on: HT29 colon
[18] = tested on: IGROV1 ovarian
[19] = tested on: K-562 leukemia
[20] = tested on: KM20L2 colon
[21] = tested on: LXFL 529 NSCLC
[22] = tested on: M14 melanoma
[23] = tested on: M19-MEL melanoma
[24] = tested on: MALME-3M melanoma
[25] = tested on: MOLT-4 leukemia
[26] = tested on: NCI-H226 lung
[27] = tested on: NCI-H23 lung
[28] = tested on: NCI-H460 lung
[29] = tested on: OVCAR-3 ovarian
[30] = tested on: OVCAR-4 ovarian
[31] = tested on: OVCAR-5 ovarian
[32] = tested on: OVCAR-8 ovarian
[33] = tested on: RPMI-8226 leukemia
[34] = tested on: RXF 393 renal
[35] = tested on: RXF-631 renal
[36] = tested on: SF-268 CNS
[37] = tested on: SF-295 CNS
[38] = tested on: SF-539 CNS
[39] = tested on: SK-MEL-28 melanoma
[40] = tested on: SK-MEL-5 melanoma
[41] = tested on: SK-OV-3 ovarian
[42] = tested on: SN12C renal
[43] = tested on: SNB-19 CNS
[44] = tested on: SNB-78 CNS
[45] = tested on: SW-620 colon
[46] = tested on: TK-10 renal
[47] = tested on: U251 CNS
[48] = tested on: UACC-257 melanoma
[49] = tested on: UACC-62 melanoma
[50] = tested on: UO-31 renal
[51] = tested on: XF 498 CNS
[52] = tested on: DMS 273 small cell lung
[53] = tested on: HCT-116 colon
[54] = tested on: KM12 colon
[55] = tested on: LOX IMVI melanoma
[56] = tested on: NCI-H522 lung
[57] = tested on: SK-MEL-2 melanoma
[58] = tested on: SNB-75 CNS
[59] = tested on: SR leukemia

COC(=O)C12C3C4C1C1C2C3C41C(=O)O (centres undefined)
> 100 µM: TGI [1] | TGI [2] | TGI [3] | TGI [4] | TGI [5] | TGI [6] | TGI [7] | TGI [8] | TGI [9] | TGI [10] | TGI [11] | TGI [12] | TGI [13] | TGI [14] | TGI [15] | TGI [16] | TGI [17] | TGI [18] | TGI [19] | TGI [20] | TGI [21] | TGI [22] | TGI [23] | TGI [24] | TGI [25] | TGI [26] | TGI [27] | TGI [28] | TGI [29] | TGI [30] | TGI [31] | TGI [32] | TGI [33] | TGI [34] | TGI [35] | TGI [36] | TGI [37] | TGI [38] | TGI [39] | TGI [40] | TGI [41] | TGI [42] | TGI [43] | TGI [44] | TGI [45] | TGI [46] | TGI [47] | TGI [48] | TGI [49] | TGI [50] | TGI [51]

COC(=O)c1sc(=O)n(-c2ccccc2)c1SCc1ccccc1
> 100 µM: TGI [1] | TGI [3] | TGI [4] | TGI [6] | TGI [7] | TGI [8] | TGI [52] | TGI [10] | TGI [11] | TGI [53] | TGI [12] | TGI [13] | TGI [14] | TGI [15] | TGI [16] | TGI [17] | TGI [18] | TGI [19] | TGI [54] | TGI [20] | TGI [55] | TGI [21] | TGI [22] | TGI [23] | TGI [24] | TGI [25] | TGI [26] | TGI [27] | TGI [28] | TGI [56] | TGI [29] | TGI [30] | TGI [31] | TGI [32] | TGI [33] | TGI [34] | TGI [35] | TGI [37] | TGI [38] | TGI [57] | TGI [39] | TGI [40] | TGI [41] | TGI [42] | TGI [43] | TGI [58] | TGI [59] | TGI [45] | TGI [46] | TGI [47] | TGI [48] | TGI [49] | TGI [50] | TGI [51]

CC1(C)CC(=O)C(C(=O)C(=O)NC2=C(Cl)C(=O)c3ccccc3C2=O)C(=O)C1
> 100 µM: TGI [1] | TGI [2] | TGI [3] | TGI [4] | TGI [5] | TGI [6] | TGI [7] | TGI [8] | TGI [9] | TGI [10] | TGI [11] | TGI [53] | TGI [12] | TGI [14] | TGI [15] | TGI [17] | TGI [18] | TGI [19] | TGI [54] | TGI [20] | TGI [55] | TGI [21] | TGI [22] | TGI [23] | TGI [24] | TGI [26] | TGI [27] | TGI [28] | TGI [29] | TGI [30] | TGI [31] | TGI [32] | TGI [33] | TGI [34] | TGI [35] | TGI [36] | TGI [37] | TGI [38] | TGI [57] | TGI [39] | TGI [40] | TGI [41] | TGI [42] | TGI [43] | TGI [58] | TGI [44] | TGI [59] | TGI [45] | TGI [46] | TGI [47] | TGI [48] | TGI [49] | TGI [50] | TGI [51]
47.2 µM: TGI [13]
94.4 µM: TGI [25]
91.6 µM: TGI [56]

CC[C@@]1(O)C(=O)OCc2c1cc1n(c2=O)Cc2cc3c([N+](=O)[O-])c(OC)ccc3nc2-1
2.55 µM: TGI [45]
2.49 µM: TGI [41]
inactive: GI50 [7] 0.529 µM | GI50 [8] 1.54 µM | GI50 [10] 3.03 µM | GI50 [54] 0.514 µM | GI50 [21] 1.43 µM | GI50 [30] 0.574 µM | GI50 [33] 1.38 µM | GI50 [57] 0.968 µM | GI50 [39] 0.544 µM | GI50 [44] 2.2 µM | GI50 [46] 3.58 µM | GI50 [51] 0.508 µM
0.23 µM: TGI [47]
5.07 µM: TGI [51]
8.42 µM: TGI [21]
0.582 µM: TGI [5]
0.635 µM: TGI [22]
14.5 µM: TGI [33]
0.831 µM: TGI [34]
0.433 µM: TGI [42]
> 20.4 µM: TGI [19]
4.58 µM: TGI [35]
0.0349 µM: TGI [6]
2.32 µM: TGI [18]
3.02 µM: TGI [30]
5.95 µM: TGI [20]
0.285 µM: TGI [40]
0.595 µM: TGI [50]
55.6 µM: TGI [46]
2.14 µM: TGI [11]
0.175 µM: TGI [27]
0.0672 µM: TGI [1]
2.16 µM: TGI [56]
> 100 µM: TGI [8] | TGI [17]
2.23 µM: TGI [48]
1.5 µM: TGI [53]
0.0835 µM: TGI [25]
0.183 µM: TGI [55]
0.121 µM: TGI [38]
0.118 µM: TGI [28]
0.196 µM: TGI [13]
2.94 µM: TGI [16]
> 65.3 µM: TGI [44]
active: GI50 [1] < 0.0115 µM | GI50 [2] 0.184 µM | GI50 [3] 0.0343 µM | GI50 [4] < 0.01 µM | GI50 [5] 0.0172 µM | GI50 [6] < 0.01 µM | GI50 [52] < 0.01 µM | GI50 [11] 0.359 µM | GI50 [53] 0.121 µM | GI50 [12] 0.386 µM | GI50 [13] 0.0236 µM | GI50 [14] 0.0816 µM | GI50 [15] < 0.01 µM | GI50 [16] 0.375 µM | GI50 [17] 0.224 µM | GI50 [18] 0.272 µM | GI50 [19] 0.168 µM | GI50 [20] 0.262 µM | GI50 [55] 0.0194 µM | GI50 [22] 0.0445 µM | GI50 [24] 0.374 µM | GI50 [25] < 0.01 µM | GI50 [26] 0.274 µM | GI50 [27] 0.0155 µM | GI50 [28] < 0.01 µM | GI50 [56] 0.0714 µM | GI50 [29] 0.424 µM | GI50 [31] 0.0649 µM | GI50 [32] 0.103 µM | GI50 [34] 0.12 µM | GI50 [35] 0.311 µM | GI50 [36] 0.0177 µM | GI50 [37] 0.0101 µM | GI50 [38] < 0.0122 µM | GI50 [40] 0.119 µM | GI50 [41] 0.0481 µM | GI50 [42] < 0.01 µM | GI50 [43] 0.0594 µM | GI50 [58] 0.035 µM | GI50 [59] < 0.01 µM | GI50 [45] 0.171 µM | GI50 [47] < 0.01 µM | GI50 [48] 0.293 µM | GI50 [49] < 0.01 µM | GI50 [50] 0.0845 µM
0.629 µM: TGI [31]
3.09 µM: TGI [24]
2.61 µM: TGI [3] | TGI [57]
0.855 µM: TGI [2]
0.377 µM: TGI [52]
> 31.8 µM: TGI [36]
6.12 µM: TGI [54]
0.0648 µM: TGI [4]
8.16 µM: TGI [39]
1.34 µM: TGI [29]
1.98 µM: TGI [14]
0.405 µM: TGI [58]
2.64 µM: TGI [7]
0.263 µM: TGI [37]
3.71 µM: TGI [12]
1.6 µM: TGI [23]
> 77.5 µM: TGI [10]
0.134 µM: TGI [49]
22.2 µM: TGI [43]
19 µM: TGI [32]
